Read-outs that look alike come from different tables or passages of the source.
What was measured:
PBM cells [1] = conditions: cited from earlier work; for IC50: studied previously, read-out: IC50 PBM cells (ruthenium analogues)
HL-60 cells [2] = tested on: HL-60 cells; set-up: method as in PMID 26486993; conditions: studied previously; read-out: IC50 HL-60 cells (ruthenium analogues); cited from earlier work
HL-60 cells [3] = assay: Cell viability resazurin assay, HL-60 cells; assay type: cell-based, human; conditions: for viability of HL-60 cells relative to control: ± SD
Experimental: (§1) The A549 (human non-small cell lung cancer) cell line was obtained from the American Type Culture Collection (ATCC) and cultured in Dulbecco's Modified Eagle Medium (DMEM) with 10% fetal bovine serum (FBS), 2 mM L-Glutamine, 25 mM HEPES and penicillin/streptomycin solution (100 U/ml and 100 µg/ml, respectively). The HL-60 (human promyelocytic leukemia) cell line was also obtained from the American Type Culture Collection (ATCC) and cultured in Iscove’s Modified Dulbecco's Medium (IMDM) with 15% fetal bovine serum (FBS), 2 mM L-Glutamine, 25 mM HEPES and penicillin/streptomycin solution (100 U/ml and 100 µg/ml, respectively). Both cell lines were cultured in flasks at 37 °C in 5% CO2 and sub-cultured every 2–3 days to maintain exponential growth.
(§2) Firstly, resazurin salt powder was dissolved in sterile 1 × PBS. Cells were then seeded on the 96-well plates in the count of 1 × 10^4 in the case of HL-60 cells and of 5 × 10^4 for PBM cells and of 5 × 10^3 for A549 cells per well. A549 cells were seeded 24 h prior to treatment with the complexes to allow cell adherence to 96-well plate. Iron(II) complexes were added to wells to obtain final concentrations of 0.5, 1, 2.5, 5, 10, 25, 50, 100 and 250 μM. Subsequently, plates were incubated at 37 °C in 5% CO2 for 2 h and 24 h. After that 10 μl of resazurin salt was added to each well and plates again were incubated in 37 °C in 5% CO2 for 2 h. Finally, fluorescence was measured with microplate reader Synergy HT (Bio-Tek Instruments, USA) using an excitation wavelength of 530/25 and an emission wavelength of 590/35 nm. The effects of iron(II) complexes were calculated as the percentage of control fluorescence. IC50 (half maximal inhibitory concentration) values were calculated using a website algorithm (https://www.aatbio.com/tools/ic50-calculator). All assays were performed in octuplicate.

HL-60 cells [4] = assay: Alkaline comet assay, HL-60 cells; assay type: cell-based, human; conditions: 2 h incubation, 1-50 μM tested
Experimental: Selected iron(II) complexes were added to the suspension of the cells to give final concentrations of 1, 5, 10, 25 and 50 μM. HL-60 and A549 cells were incubated with the complexes for 2 h at 37 °C. The comet assay was performed under alkaline conditions according to the procedure of Tokarz et al.[45]. […] Next, the cells were lysed for 1 h at 4 °C in a buffer containing 2.5 M NaCl, 0.1 M EDTA, 10 mM Tris, 1% Triton X-100, pH 10. Following the lysis, the slides were placed in an electrophoresis unit. DNA was allowed to unwind for 20 min in the solution containing 300 mM NaOH and 1 mM EDTA, pH > 13. […] After separation, the slides were washed in water, drained, stained with 2 μg/ml DAPI and covered with cover slips. As a prevention from additional DNA damage, the procedure described above was conducted under limited light or in the dark. Each experiment included the positive control—cells incubated with H2O2 at 20 µM for 15 min on ice (data not shown).
The comets obtained after single cell gel electrophoresis were analysed in the following manner. […] Hundred images of singular comets were randomly selected from each sample and the mean value of DNA in comet tail was taken as an index of DNA damage (expressed in percent).

A549 cells = assay: Cell viability resazurin assay, A549 cells; assay type: cell-based, human; conditions: for viability of A549 cells relative to control: ± SD
Experimental: as §1, §2

PBM cells [5] = assay: Cell viability resazurin assay, PBM cells; assay type: cell-based, human; conditions: for viability of PBM cells relative to control: ± SD
Source text: Peripheral blood mononuclear (PBM) cells were isolated from a leukocyte-buffy coat collected from the blood of healthy, non-smoking donors at the Blood Bank in Lodz, Poland. The study protocol received approval from the Committee for Research on Human Subjects of the University of Lodz (17/KBBN-UŁ/III/2019). The initial step of isolation process involved mixing buffy coats with PBS in a 1:1 ratio. Subsequently, the mixture was centrifuged using a density gradient of Lymphosep (Cytogen, Zgierz, Poland) at 2200 RPM for 20 min, employing the lowest values for acceleration and deceleration. PBM cells were collected and washed three times by centrifugation with 1 × PBS. Following isolation, the cells were suspended in RPMI 1640 medium.
as §2

[6] = tested on: doxorubicin-resistant (Colo320) cells; set-up: method as in PMID 37187089; conditions: cited from earlier work
[7] = tested on: doxorubicin-sensitive cells (Colo205); set-up: method as in PMID 37187089; conditions: cited from earlier work

Structure (SMILES): CCOP(OCC)OCC.O=C1C=CC(=O)[N-]1.[C-]#[O+].[Ru+2].c1cc[cH-]c1 [ruthenium(II) complex 3a, CpRu(CO)(P(OEt)3)(η^1-N-maleimidato)]
- IC50 (PBM cells [1]): > 250 µM
- IC50 (HL-60 cells [2]): 12.2 µM

Structure (SMILES): CCOP(OCC)OCC.O=C1C=CC(=O)[N-]1.[C-]#[O+].[Fe+2].c1cc[cH-]c1 [3a]
- viability of HL-60 cells relative to control (HL-60 cells [3]; 2 h incubation, 0.5 µM): 103.48 ± 2.11%
- viability of HL-60 cells relative to control (HL-60 cells [3]; 2 h incubation, 1 µM): 105.44 ± 1%
- viability of HL-60 cells relative to control (HL-60 cells [3]; 2 h incubation, 2.5 µM): 102.35 ± 0.54%
- viability of HL-60 cells relative to control (HL-60 cells [3]; 2 h incubation, 5 µM): 100.13 ± 1.86%
- viability of HL-60 cells relative to control (HL-60 cells [3]; 2 h incubation, 10 µM): 101.73 ± 3.47%
- viability of HL-60 cells relative to control (HL-60 cells [3]; 2 h incubation, 25 µM): 97.68 ± 2.4%
- viability of HL-60 cells relative to control (HL-60 cells [3]; 2 h incubation, 50 µM): 93.65 ± 1.73%
- viability of HL-60 cells relative to control (HL-60 cells [3]; 2 h incubation, 100 µM): 87.54 ± 2.53%
- viability of HL-60 cells relative to control (HL-60 cells [3]; 2 h incubation, 250 µM): 30.8 ± 1.55%
- IC50 (HL-60 cells [3]; 24 h incubation): 15.9 µM
- viability of HL-60 cells relative to control (HL-60 cells [3]; 24 h incubation, 0.5 µM): 107.33 ± 1.24%
- viability of HL-60 cells relative to control (HL-60 cells [3]; 24 h incubation, 1 µM): 109.38 ± 4%
- viability of HL-60 cells relative to control (HL-60 cells [3]; 24 h incubation, 2.5 µM): 112.36 ± 1.5%
- viability of HL-60 cells relative to control (HL-60 cells [3]; 24 h incubation, 5 µM): 106.89 ± 3.43%
- viability of HL-60 cells relative to control (HL-60 cells [3]; 24 h incubation, 10 µM): 89 ± 3.39%
- viability of HL-60 cells relative to control (HL-60 cells [3]; 24 h incubation, 25 µM): 46.28 ± 0.82%
- viability of HL-60 cells relative to control (HL-60 cells [3]; 24 h incubation, 50 µM): 38.62 ± 0.52%
- viability of HL-60 cells relative to control (HL-60 cells [3]; 24 h incubation, 100 µM): 39.69 ± 0.83%
- viability of HL-60 cells relative to control (HL-60 cells [3]; 24 h incubation, 250 µM): 17.5 ± 0.5%
- DNA damage in HL-60 cells (alkaline comet assay), in words (HL-60 cells [4]): DNA damage at the concentrations of 10, 25 and 50 μM
- viability of A549 cells relative to control (A549 cells; 2 h incubation, 0.5 µM): 100.11 ± 13.46%
- viability of A549 cells relative to control (A549 cells; 2 h incubation, 1 µM): 89.02 ± 8.33%
- viability of A549 cells relative to control (A549 cells; 2 h incubation, 2.5 µM): 86.36 ± 7.43%
- viability of A549 cells relative to control (A549 cells; 2 h incubation, 5 µM): 85.49 ± 7.39%
- viability of A549 cells relative to control (A549 cells; 2 h incubation, 10 µM): 83.61 ± 12.73%
- viability of A549 cells relative to control (A549 cells; 2 h incubation, 25 µM): 82.29 ± 5.9%
- viability of A549 cells relative to control (A549 cells; 2 h incubation, 50 µM): 82.69 ± 3.89%
- viability of A549 cells relative to control (A549 cells; 2 h incubation, 100 µM): 74.97 ± 6.81%
- viability of A549 cells relative to control (A549 cells; 2 h incubation, 250 µM): 68.50 ± 8.56%
- IC50 (A549 cells; 24 h incubation): > 250 µM
- cytotoxicity against A549 cells, in words (A549 cells; 24 h incubation): did not show cytotoxicity
- viability of A549 cells relative to control (A549 cells; 24 h incubation, 0.5 µM): 80.91 ± 12.58%
- viability of A549 cells relative to control (A549 cells; 24 h incubation, 1 µM): 70.97 ± 10.92%
- viability of A549 cells relative to control (A549 cells; 24 h incubation, 2.5 µM): 68.70 ± 18.12%
- viability of A549 cells relative to control (A549 cells; 24 h incubation, 5 µM): 68.55 ± 13.94%
- viability of A549 cells relative to control (A549 cells; 24 h incubation, 10 µM): 71.63 ± 17.67%
- viability of A549 cells relative to control (A549 cells; 24 h incubation, 25 µM): 131.92 ± 19.26%
- viability of A549 cells relative to control (A549 cells; 24 h incubation, 50 µM): 131.87 ± 25.64%
- viability of A549 cells relative to control (A549 cells; 24 h incubation, 100 µM): 153.54 ± 19.26%
- viability of A549 cells relative to control (A549 cells; 24 h incubation, 250 µM): 95.62 ± 13.21%
- A549 cell viability, increase with increasing concentrations to (A549 cells; 24 h incubation, concentration not given): 153%
- viability of PBM cells relative to control (PBM cells [5]; 2 h incubation, 0.5 µM): 83.62 ± 1.79%
- viability of PBM cells relative to control (PBM cells [5]; 2 h incubation, 1 µM): 82.59 ± 3.38%
- viability of PBM cells relative to control (PBM cells [5]; 2 h incubation, 2.5 µM): 83.52 ± 1.8%
- viability of PBM cells relative to control (PBM cells [5]; 2 h incubation, 5 µM): 86.67 ± 4.18%
- viability of PBM cells relative to control (PBM cells [5]; 2 h incubation, 10 µM): 89.89 ± 2.91%
- viability of PBM cells relative to control (PBM cells [5]; 2 h incubation, 25 µM): 98.19 ± 4.2%
- viability of PBM cells relative to control (PBM cells [5]; 2 h incubation, 50 µM): 98.5 ± 3.37%
- viability of PBM cells relative to control (PBM cells [5]; 2 h incubation, 100 µM): 97.79 ± 4.89%
- viability of PBM cells relative to control (PBM cells [5]; 2 h incubation, 250 µM): 98.17 ± 2.87%
- IC50 (PBM cells [5]; 24 h incubation): > 250 µM
- viability of PBM cells relative to control (PBM cells [5]; 24 h incubation, 0.5 µM): 102.49 ± 0.39%
- viability of PBM cells relative to control (PBM cells [5]; 24 h incubation, 1 µM): 104.14 ± 1.97%
- viability of PBM cells relative to control (PBM cells [5]; 24 h incubation, 2.5 µM): 104.31 ± 0.56%
- viability of PBM cells relative to control (PBM cells [5]; 24 h incubation, 5 µM): 102.43 ± 1.43%
- viability of PBM cells relative to control (PBM cells [5]; 24 h incubation, 10 µM): 99.21 ± 0.78%
- viability of PBM cells relative to control (PBM cells [5]; 24 h incubation, 25 µM): 98.34 ± 0.97%
- viability of PBM cells relative to control (PBM cells [5]; 24 h incubation, 50 µM): 98.58 ± 2.84%
- viability of PBM cells relative to control (PBM cells [5]; 24 h incubation, 100 µM): 102.37 ± 3.3%
- viability of PBM cells relative to control (PBM cells [5]; 24 h incubation, 250 µM): 94.72 ± 3.88%

Structure (SMILES): O=C1C=CC(=O)[N-]1.[C-]#[O+].[Ru+2].c1cc[cH-]c1.c1ccc(P(c2ccccc2)c2ccccc2)cc1 [2a-Ru]
- cytotoxicity toward PBM cells of ruthenium analogues, in words (PBM cells [1]): non-toxic

Structure (SMILES): O=S(=O)([O-])C(F)(F)F.[C-]#[O+].[Fe+2].c1cc[cH-]c1.c1ccc(Cn2ccnc2)cc1.c1ccc(P(c2ccccc2)c2ccccc2)cc1 [[CpFe(CO)(PPh3) (1-benzylimidazole)](CF3SO3)]
- IC50 [6]: 2.21 ± 0.26 µM
- IC50 [7]: 1.26 ± 0.11 µM

Structure (SMILES): O=C1C=CC(=O)[N-]1.[C-]#[O+].[Ru+2].c1cc[cH-]c1.c1ccc(P(c2ccccc2)c2ccccc2)cc1 [ruthenium complex 2b, CpRu(CO)(PPh3) (η^1-N-maleimidato)]
- cytotoxicity toward PBM cells of ruthenium analogues, in words (PBM cells [1]; listed as 2b-Ru): cytotoxic
- IC50 (PBM cells [1]): 8.48 µM
- IC50 (HL-60 cells [2]): 35.6 µM

Reference: publication PMC10920834, “Synthesis, anticancer activity, and molecular docking of half-sandwich iron(II) cyclopentadienyl complexes with maleimide and phosphine or phosphite ligands” (Scientific Reports, 2024)
